Key:
[1] = test system: human fibroblast cultures; assay: cell-stimulating action on human fibroblast cultures; assay type: cell-based; settings: active ingredient present in the culture medium
Excerpt: The cell-stimulating action of the complex of amino acids with silanol has been tested on human fibroblast cultures. The increase in cell growth was 46% when that active ingredient was present in the culture medium.

[2] = test system: transglutaminases in keratinocytes; settings: cited from earlier work

| Compound | increase in cell growth [1] [%] | formation of the corneified enclosure of the corneocytes ([2]; keratinocytes in the final stage of differentiation) | synthesis of transglutaminases in keratinocytes ([2]; keratinocytes) |
| --- | --- | --- | --- |
| monomethylsilanol-hydroxyproline aspartate [complex of amino acids with silanol] | 46 |  |  |
| CCCC(=O)[O-].[Na+] [sodium butyrate] |  | capable of stimulating | capable of stimulating the synthesis of transglutaminases |

Source: patent US20060057093A1, “Preparation for topical use with the function of combating hair loss” (priority 2003, published 2006)
